# From patent US20090291857A1, “METHODS TO IDENTIFY INHIBITORS OF THE UNFOLDED PROTEIN RESPONSE” (THE BOARD OF TRUSTEES OF THE LELAND STANFORD JUNIOR …, priority 2006, published 2009)
# Tests used:
# HT1080 fibrosarcoma = experiment: Cell proliferation assay, HT1080; format: cell-based, human; details: same concentrations
# Protocol: A. Effect of irestatin 9389 on PERK and ATF6 pathways. HT1080 cells were treated with vehicle alone (lanes 1-4) or 2.5 μM irestatin 9389 (lanes 5-8) and cultured under aerobic conditions for 18 hours (N) or shifted to hypoxia for the indicated times. Protein lysates were analyzed by Western blot analysis using antisera specific for ATF6 (top), CHOP/GADD153 (middle) or actin (bottom). Arrow indicates the cleaved, transcriptionally active form of ATF6. B. Cleavage of caspase-3 in irestatin-treated cells under hypoxia. HT1080 cells were cultured in normoxia (N) or under hypoxia for 36 hours (H 36) in absence or presence of irestatin 9389 (2.5 μM). Arrows indicate proteolytically cleaved caspase-3. C. Colony formation assay. HT1080 cells were treated as in B under normoxia (N) or hypoxia for 48 hours (H 48). Cells were harvested, counted, and allowed to grow under normal culture conditions for 11-12 days. Colonies were visualized with crystal violet staining. D. Quantification of clonogenic survival assay. Values represent the mean+/−SEM from at least 4 independent experiments. E. TUNEL staining of cells treated as in C. F. Quantification of TUNEL-positive cells. Values represent the mean+/−SEM from at least 3 experiments. […] Cells were harvested at the indicated times and counted by hemocytometer. Values represent the mean calculated from triplicate experiments +/−SEM. […]
# XBP-1s = experiment: Western immunoblot analysis of XBP-1s in HT1080 cells; format: cell-based, human; details: 2 μM; for levels of XBP-1s under hypoxia: 24 hours of hypoxia
# Protocol: Cells were harvested, lysed, and analyzed by Western blot using anti-XBP-1 antisera (lower panel) or anti-HIF-1 antisera (top panel) to confirm hypoxia exposure.
# Cells (2×10^6) were cultured in 10-cm dishes, collected using a cell scraper at 4° C., and lysed by addition of 150 μl cell lysis buffer [50 mM Tris pH 7.4, 150 mM NaCl, 10% glycerol, 0.5% Triton X-100. 0.5% NP-40, 2 mM Na3VO4, 20 mM beta-glycerophosphate, 10 mM NaF, 1 mM DTT, 1 mM PMSF). Lysates were centrifuged for 5 min at 10,000×g, and proteins (˜40 μg) were resolved by SDS-PAGE followed by semi-dry transfer to nitrocellulose membranes. Membranes were blocked in TBS-5% milk supplemented with 0.1% Tween-20. The blots were then probed overnight with relevant antibodies, washed, and incubated for 2 hours with species-specific secondary antibodies conjugated to horseradish peroxidase. After washing in block solution, immunoreactive material was detected by enhanced chemiluminescence (SuperSignal West Dura Extended, Pierce, Inc., Rockville, Ill.).
# A. XBP-luciferase reporter construct. Firefly luciferase was inserted downstream of the IRE1α splice site in human XBP-1 to enable the conditional translation of luciferase under ER stress in an IRE1α-dependent manner. B. Selective inhibition of the XBP-luciferase reporter by irestatin 9389. […] After 24 hours, luciferase activity was analyzed in an automated plate reader. For each cell line, values are expressed as the percent inhibition of the median for Tm/Tg-treated wells, corrected for background. […] Values are expressed as the fold increases over uninduced levels. […] Cells were harvested, lysed, and analyzed by immunoblotting with antisera specific for HIF-1α (top), XBP-1s (middle) or actin (bottom). […] Total RNA was analyzed by Northern blotting using radiolabeled probes specific for P58^IPK or DER-1. […]
# Since these assays employed a chimeric XBP-luciferase substrate, we next determined whether irestatin 9389 could inhibit the function of endogenous XBP-1s. […]
smiles,measurement,setting,value
Cc1csc(NC(=O)CSc2nc3c(c(C(F)(F)F)c2C#N)CCC3)n1 [Compound 9389],growth rate of HT1080 cells under normal conditions,HT1080 fibrosarcoma,negligible effect
same,levels of XBP-1s under hypoxia,XBP-1s; listed as Irestatin 9389,blocks the accumulation of XBP-1s
same,levels of XBP-1s under hypoxia,XBP-1s; listed as irestatin 9389,decreased levels of XBP-1s
same,accumulation of XBP-1s following treatment with Tm,XBP-1s; Tm 4 μg/ml 20 hours,blocked the accumulation of XBP-1s
